Reference: paper PMC12040169 (PLOS Biology, 2025)

Experiment: in vitro
Details: human, hela cells, % viability

SMILES | viability at 28.5 h, 10 µM [%]
O=C(Nc1ccc2[nH]ccc2c1)c1c(F)ccc(Cl)c1F [CBK159673] | 78.6
Cc1ccc(C(=O)Nc2ccc3[nH]ccc3c2)cc1Cl [CBK159677] | 85.5
COc1ccc(C(=O)Nc2ccc3[nH]ccc3c2)cc1Cl [CBK159681] | 94
O=C(Nc1ccc2[nH]ccc2c1)c1ccc(F)c(F)c1 [CBK159683] | 88.3
O=C(Cc1cc(F)cc(F)c1F)Nc1ccc2[nH]ccc2c1 [CBK159686] | 87.4
O=C(Nc1ccc2[nH]ccc2c1)c1ccc(OC(F)(F)F)cc1 [CBK159688] | 61.5
Cc1cc(CC(=O)Nc2ccc3[nH]ccc3c2)on1 [CBK159690] | 103
COc1cc(C(=O)Nc2ccc3[nH]ccc3c2)cc(OC)c1OC [CBK159696] | 92.9
CSCCC(=O)Nc1ccc2c(ccn2Cc2ccccc2)c1 [CBK159732] | 69.4
CN(C)CCCC(=O)Nc1ccc2c(ccn2Cc2ccccc2)c1 [CBK159740] | 91.2
O=C(Cc1ccc(Cl)cc1Cl)NCCc1c[nH]c2ccc(Cl)cc12 [CBK159744] | 104
O=C(NCCc1c[nH]c2ccc(Cl)cc12)c1ccc(Cl)cc1Br [CBK159755] | 96.3
O=C(NCCc1c[nH]c2ccc(Cl)cc12)c1cc(F)c(Cl)cc1F [CBK159763] | 93.6
Cc1cc(Br)ccc1C(=O)NCCc1c[nH]c2ccc(Cl)cc12 [CBK159771] | 91
Cc1cc(CC(=O)NCCc2c[nH]c3ccc(Cl)cc23)on1 [CBK159774] | 86.4
CSCCC(=O)NCCc1c[nH]c2ccc(Cl)cc12 [CBK159775] | 95.6
O=C(NCCc1c[nH]c2ccc(Cl)cc12)c1cccnc1 [CBK159778] | 106
O=C(Nc1ccc2ncccc2c1)c1ccc(F)cc1Cl [CBK159796] | 91.1
O=C(Nc1ccc2ncccc2c1)c1cccc(F)c1Cl [CBK159800] | 85.9
Cc1cc(C(=O)Nc2ccc3ncccc3c2)ccc1Cl [CBK159804] | 88.8
O=C(Nc1ccc2ncccc2c1)c1ccc(F)c(F)c1 [CBK159810] | 78.5
O=C(Nc1ccc2ncccc2c1)c1ccoc1 [CBK159823] | 95.8
CN1CCC[C@H]1C(=O)Nc1ccc2ncccc2c1 [CBK159825] | 95.7

SMILES | viability at 28.5 h, 10 µM [%]
CC(C)Cn1c(=O)c(C(=O)Nc2cccc(Cl)c2)c(O)c2ccccc21 [CBK159967] | 103
CC(C)CCNC(=O)c1c(O)c2ccccc2[nH]c1=O [CBK159975] | 91.7
COc1cc2[nH]c(=O)c(C(=O)NCCc3ccc(Cl)cc3)c(O)c2cc1OC [CBK159986] | 91.3
COc1cc2ncc(C(=O)NCc3cccs3)c(O)c2cc1OC [CBK159998] | 91.9
COCCNC(=O)c1cnc2ccc(OC)cc2c1O [CBK159999] | 95.9
O=C(COc1ccc(Cl)cc1Cl)Nc1ccc2cc[nH]c2c1 [CBK160023] | 92.5
O=C(Cc1ccc(F)cc1F)Nc1ccc2cc[nH]c2c1 [CBK160044] | 102
Cc1cc(Br)ccc1C(=O)Nc1ccc2cc[nH]c2c1 [CBK160046] | 84.1
O=C(Nc1ccc2cc[nH]c2c1)c1cccnc1 [CBK160053] | 97.9
O=C(Nc1cccc2cc[nH]c12)c1cccc(F)c1Cl [CBK160074] | 99.8
Cc1cc(C(=O)Nc2cccc3cc[nH]c23)ccc1Cl [CBK160078] | 96.2
NS(=O)(=O)c1ccc(C(=O)Nc2cccc3cc[nH]c23)cc1 [CBK160094] | 94.8
CN1CCC[C@H]1C(=O)Nc1cccc2cc[nH]c12 [CBK160098] | 104
CCOC(=O)C1CCN(C(=O)c2cccnc2NCc2ccc3c(c2)OCO3)CC1 [CBK160106] | 118
Cc1ccc2c(c1)CCCN2C(=O)c1cccnc1NCc1ccc2c(c1)OCO2 [CBK160113] | 94.5
O=C(Cc1nnn[nH]1)Nc1cccc(-c2nn[nH]n2)c1 [CBK160122] | 116
CCOC(=O)c1[nH]c2ccccc2c1NC(=O)Cc1c(Cl)cccc1Cl [CBK160132] | 95.6
CCOC(=O)c1[nH]c2ccccc2c1NC(=O)COc1ccc(Cl)cc1Cl [CBK160134] | 102
CCOC(=O)c1[nH]c2ccccc2c1NC(=O)c1ccc(Cl)cc1Br [CBK160140] | 96.7
CCOC(=O)c1[nH]c2ccccc2c1NC(=O)CS(=O)(=O)c1ccc(C)cc1 [CBK160162] | 94.3
CC(=O)Nc1ccc(-c2ccc(C(=O)N3CCN(C(=O)OCc4ccccc4)CC3)cn2)cc1 [CBK160185] | 87.6
CC(=O)Nc1ccc(-c2ccc(C(=O)N3CCN(C(=O)N4CCCC4)CC3)cn2)cc1 [CBK160187] | 94.5
CC(=O)Nc1ccc(-c2ccc(C(=O)N3CCC(Sc4ccccc4)CC3)cn2)cc1 [CBK160188] | 99.6
